Test results published in patent US20230270703A1, “COMPOUNDS AND METHODS FOR THE TREATMENT OF EYE DISORDERS” (OccuRx Pty Ltd, priority 2020, published 2023).
Where two headings read alike, the source gives them in different places. Each block holds one compound with its values, some of them ahead of it.

Key:
[1] = Rat plasma pharmacokinetic study, single daily dose for 28 days, plasma on first day of dosing; format: in vivo, Sprague-Dawley rats; conditions: Sprague-Dawley, read-out: elimination half-life (converted)
Method: Sprague-Dawley rats were administered a single daily dose of (E)-2-[[3-methoxy-4-(difluoromethoxy)phenyl-1-oxo-2-propenyl]amino]benzoic at 25, 50 or 100 mg/kg for 28 consecutive days. Plasma was collected up to 24 hours post-dose on the first day of dosing.

[2] = Dog plasma pharmacokinetic study, single daily dose for 28 days, plasma on first day of dosing; format: in vivo, Beagle dogs; conditions: beagle, read-out: elimination half-life (converted)
Method: Beagle dogs were administered a single daily dose of (E)-2-[[3-Methoxy-4-(difluoromethoxy)phenyl-1-oxo-2-propenyl]amino]benzoic at 25, 50 or 100 mg/kg for 28 consecutive days. Plasma was collected up to 24 hours post-dose on the first day of dosing.

[3] = Human Phase I clinical trial plasma pharmacokinetics, single 50 mg dose; format: in vivo, humans; conditions: 50 mg single oral dose
Method: Six healthy male volunteers in a Phase I clinical trial received a single dose of 50 mg (E)-2-[[3-Methoxy-4-(difluoromethoxy)phenyl-1-oxo-2-propenyl]amino] benzoic acid administered as powder-in-capsule. Blood was collected 10 minutes prior to dosing, and at 15 and 30 minutes and 1, 2, 3, 4, 6, 8, 12, 24, 36, 48, 72 and 96 hours post dose into K2EDTA tubes. Samples were spun in a refrigerated centrifuge within 1 hour of collection, at 2000 g for 10 minutes. Plasma was collected and frozen on dry ice.
(§1) The concentration of (E)-2-[[3-Methoxy-4-(difluoromethoxy)phenyl-1-oxo-2-propenyl]amino]benzoic acid in plasma was determined using a validated LC-MS/MS method. A non-compartmental analysis was performed using WinNonLin software. Nominal doses and sampling times were used. Concentration values below the lower limit of quantitation were treated as zero for pharmacokinetic analysis.

[4] = Human clinical plasma pharmacokinetics, single or multiple doses of 200 mg; format: in vivo, humans; conditions: for Dose normalised AUC0-inf / Dose normalised Cmax / AUC(0-inf) / Cmax / Tmax / half-life: 200 mg oral; for AUC(0-inf) / Cmax / Tmax / half-life: human, plasma, po; for half-life: read-out: T ½ (converted)
Method: Clinical pharmacokinetic studies were also conducted on volunteers who received a single dose or multiple doses of 200 mg (E)-2-[[3-Methoxy-4-(difluoromethoxy)phenyl-1-oxo-2-propenyl]amino] benzoic acid administered as powder-in-capsule. Blood was collected 10 minutes prior to dosing, and at 15 and 30 minutes and 1, 2, 3, 4, 6, 8, 12, 24, 36, 48, 72 and 96 hours post dose into K2EDTA tubes. Samples were spun in a refrigerated centrifuge within 1 hour of collection, at 2000 g for 10 minutes. Plasma was collected and frozen on dry ice.
as §1

[5] = Human Phase I clinical study, steady state exposure at 50 mg after 14 days dosing; format: in vivo, humans; conditions: plasma, oral, Data from Phase I (after 14 days dosing)
Method: The corresponding data from the human Phase I clinical study is also included below, showing a much greater than predicted Cmax and AUC0-24 at 50 mg dosing.

[6] = Rabbit plasma and ocular tissue steady state pharmacokinetics, 8 daily oral doses; format: in vivo, Dutch Belted pigmented rabbits; conditions: for Tmax / Cmax: male, Dutch Belted
Method: Male Dutch Belted pigmented rabbits were administered a once daily dose of 50 or 100 mg/kg of (E)-2-[[3-Methoxy-4-(difluoromethoxy)phenyl-1-oxo-2-propenyl]amino]benzoic acid by oral gavage for 8 days. The oral formulation was prepared in 1% carboxymethyl cellulose. Blood was collected into tubes containing K2EDTA from two animals/dose/time point at 0 (predose), 1, 2, 4, 8, and 24 hours after the last dose on Study Day 8. Immediately following blood collection, animals were sacrificed via overdose of sodium pentobarbital. Blood samples were placed in a chilled cryorack until centrifuged to obtain plasma, which was stored at approximately -70° C. At the time of sacrifice for all animals, both eyes were enucleated, the aqueous humor was collected and discarded, and each eye was then flash frozen in liquid nitrogen for 15 to 20 seconds. The enucleated eye was placed on dry ice or stored at approximately -70° C. for at least two hours. Within approximately 5 days, the choroid-RPE, iris-ciliary body, retina and vitreous humor were collected from the right and left eye. The ocular tissues were rinsed with saline and blotted dry, as appropriate, weighed, and placed on dry ice. Sample analysis was performed using a qualified LC-MS/MS method to ascertain the concentration of (E)-2-[[3-Methoxy-4-(difluoromethoxy)phenyl-1-oxo-2-propenyl]amino]benzoic acid in each tissue matrix. Non-compartmental analysis (Gibaldi and Perrier, 1982) was applied to the individual and mean concentration data. Nominal doses and sampling times were used. Concentration values below the lower limit of quantitation were treated as zero for pharmacokinetic analysis. The plasma and ocular steady state non-compartmental pharmacokinetic parameters for repeated oral administration of 50 or 100 mg/kg on Day 8 are summarized in Table 2 and further below.

[7] = Rat plasma and retina pharmacokinetics, single oral dose 50 mg/kg; format: in vivo, Sprague Dawley rats; conditions: single oral dose 50 mg/kg
Method: Male Sprague Dawley rats were administered a single dose of 50 mg/kg of (E)-2-[[3-Methoxy-4-(difluoromethoxy)phenyl-1-oxo-2-propenyl]amino]benzoic acid by oral gavage. The oral formulation was prepared in 1% carboxymethyl cellulose. Samples were collected from 3 animals/timepoint at 1, 2, 4, 8 and 24 hours after dosing. Whole blood was collected from the tail vein in conscious rats into polypropylene tubes containing heparin. Blood samples were centrifuged immediately (3000 rpm, for 10 minutes) and supernatant plasma removed and snap frozen in liquid N2. After blood collection, animals were euthanised with pentobarbitone (120 mg/kg), eyes were enucleated and retina were weighed, collected and snap frozen in liquid nitrogen. Blood was centrifuged at 3000 rpm for 10 mins at 4° C. and plasma was collected and snap frozen in liquid N2. Plasma and retinal concentrations of (E)-2-[[3-Methoxy-4-(difluoromethoxy)phenyl-1-oxo-2-propenyl]amino]benzoic acid were determined using a validated LC-MS/MS method. Cmax and Tmax was estimated using GraphPad prism software.

[8] = Animal pharmacokinetic data, 91 days of dosing in rats; format: in vivo
[9] = Animal pharmacokinetic data, 91 days of dosing in dogs; format: in vivo
[10] = Tranilast plasma pharmacokinetics after 200 mg oral dosage (data from Charng et al.); format: in vivo, humans; conditions: human plasma
Method: Pharmacokinetic data for a comparator compound Tranilast following 200 mg oral dosage are also shown. See, e.g., Charng M, Ding P Y, Chuang M, et al. Pharmacokinetic Properties of Tranilast in Chinese People. Journal of Food and Drug Analysis, Vol. 10, No. 3, 2002, Pages 135-138. Tranilast is approved for use in an amount of 3 × 100 mg/day.

[11] = human plasma, cited from earlier work
[12] = Tranilast 200 mg, Day 1, single dose

half-life ([1]; 25 mg/kg): 12.9 h | half-life ([1]; 50 mg/kg): 13 h | half-life ([1]; 100 mg/kg): 11 h | half-life ([2]; 25 mg/kg): 4.3 h | half-life ([2]; 50 mg/kg): 4.9 h | half-life ([2]; 100 mg/kg): 4.2 h | Dose normalised AUC0-inf [3]: 2,256 ng·h/mL | Dose normalised Cmax [3]: 175 ng/mL | AUC(0-inf) ([3]; male): 113 µg·h/mL | Tmax ([3]; male): 2.5 h | Cmax ([3]; male, powder-in-capsule): 8740 ng/mL | half-life ([3]; male, read-out: T ½ (converted)): 24 h | Dose normalised AUC0-inf ([4]; Day 1, single dose): 1951 ng·h/mL | Dose normalised Cmax ([4]; Day 1, single dose): 164 ng/mL | Dose normalised AUC0-inf ([4]; Day 14, multiple dose): 18,874 ng·h/mL | Dose normalised Cmax ([4]; Day 14, multiple dose): 338 ng/mL | increase in Cmax after 14 days of dosing compared with a single dose ([4]; 200 mg, steady state vs single dose): two-fold increase | AUC(0-inf) ([4]; 200 mg, Day 1, single dose): 390 µg·h/mL | Cmax ([4]; 200 mg, Day 1, single dose): 32800 ng/mL | Tmax ([4]; 200 mg, Day 1, single dose): 3 h | half-life ([4]; 200 mg, Day 1, single dose): 9.6 h | AUC(0-inf) ([4]; 200 mg, Day 14, multiple dose): 3770 µg·h/mL | Cmax ([4]; 200 mg, Day 14, multiple dose): 67600 ng/mL | Tmax ([4]; 200 mg, Day 14, multiple dose): 2.5 h | half-life ([4]; 200 mg, Day 14, multiple dose): 23.2 h | Cmax [5]: 6560 ng/mL | AUC(0-t) ([5]; read-out: AUC0-24 hrs, ss): 74 µg·h/mL | Tmax ([6]; oral, rabbit ocular tissues, 50 and 100 mg/kg, read-out: Tmax for all analyzed ocular tissues): 1 to 4 h | Cmax ([6]; rabbit Choroid-RPE, 50 mg/kg/day oral, Day 8): 3320 ng/g | Tmax ([6]; rabbit Choroid-RPE, 50 mg/kg/day oral, Day 8, read-out: Tmax): 1 h | Cmax ([6]; rabbit Choroid-RPE, 100 mg/kg/day oral, Day 8): 12300 ng/g | Tmax ([6]; rabbit Choroid-RPE, 100 mg/kg/day oral, Day 8, read-out: Tmax): 2 h | Cmax ([6]; rabbit Iris Ciliary Body, 50 mg/kg/day oral, Day 8): 2510 ng/g | Tmax ([6]; rabbit Iris Ciliary Body, 50 mg/kg/day oral, Day 8, read-out: Tmax): 1 h | Cmax ([6]; rabbit Iris Ciliary Body, 100 mg/kg/day oral, Day 8): 8620 ng/g | Tmax ([6]; rabbit Iris Ciliary Body, 100 mg/kg/day oral, Day 8, read-out: Tmax): 2 h | Cmax ([6]; rabbit Plasma, 50 mg/kg/day oral, Day 8): 15200 ng/mL | Tmax ([6]; rabbit Plasma, 50 mg/kg/day oral, Day 8, read-out: Tmax): 1 h | Cmax ([6]; rabbit Plasma, 100 mg/kg/day oral, Day 8): 42000 ng/mL | Tmax ([6]; rabbit Plasma, 100 mg/kg/day oral, Day 8, read-out: Tmax): 2 h | Cmax ([6]; rabbit Retina, 50 mg/kg/day oral, Day 8): 623 ng/g | Tmax ([6]; rabbit Retina, 50 mg/kg/day oral, Day 8, read-out: Tmax): 1 h | Cmax ([6]; rabbit Retina, 100 mg/kg/day oral, Day 8): 2370 ng/g | Tmax ([6]; rabbit Retina, 100 mg/kg/day oral, Day 8, read-out: Tmax): 4 h | Cmax ([6]; rabbit Vitreous Humour, 50 mg/kg/day oral, Day 8): 3.3 ng/mL | Tmax ([6]; rabbit Vitreous Humour, 50 mg/kg/day oral, Day 8, read-out: Tmax): 1 h | Cmax ([6]; rabbit Vitreous Humour, 100 mg/kg/day oral, Day 8): 11.5 ng/mL | Tmax ([6]; rabbit Vitreous Humour, 100 mg/kg/day oral, Day 8, read-out: Tmax): 4 h | detection in plasma or ocular tissue by 24 hours-post dose ([6]; rabbits, either dose (50 or 100 mg/kg)): could not be detected | Cmax ([7]; male, Sprague Dawley, rat retina, read-out: estimated Cmax in retina): 792 ng/g | estimated maximum concentration in plasma ([7]; rat plasma): 35,134 ng/mL | time of estimated maximum concentration in plasma ([7]; rat plasma): 1 h | time of estimated maximal exposure in retina ([7]; rat retina): 4 h | detection in the plasma and retina at 24-hours post-dose ([7]; rat): still detected | accumulation with multiple dosing [8]: did not show accumulation | accumulation with multiple dosing [9]: did not show accumulation
Structure (SMILES): COc1cc(/C=C/C(=O)Nc2ccccc2C(=O)O)ccc1OC(F)F [(E)-2-[[3-methoxy-4-(difluoromethoxy)phenyl-1-oxo-2-propenyl]amino]benzoic acid]

Dose normalised AUC0-inf ([10]; Tranilast 200 mg oral): 2,060 ng·h/mL | Dose normalised Cmax ([10]; Tranilast 200 mg oral): 210 ng/mL | Dose normalised AUC0-inf [10, 12]: 2,060 ng·h/mL | Dose normalised Cmax [10, 12]: 210 ng/mL
Structure (SMILES): COc1ccc(/C=C/C(=O)Nc2ccccc2C(=O)O)cc1OC [Tranilast]
AUC(0-inf) ([11]; Tranilast 200 mg oral): 412,000 ng·h/mL | Cmax ([11]; Tranilast 200 mg oral): 42,000 ng/mL | T ½ ([11]; Tranilast 200 mg oral): 7.5 h | Tmax ([11]; Tranilast 200 mg oral): 2.8 h | AUC(0-inf) [11, 12]: 412,000 ng-h/mL | Cmax [11, 12]: 42,000 ng/mL | T ½ [11, 12]: 7.5 h | Tmax [11, 12]: 2.8 h
